These results are taken from US20250171461A1, “STIMULATOR OF INTERFERON GENES (STING) MODULATORS, AND COMPOSITIONS AND METHODS THEREOF” (Geode Therapeutics Inc., priority 2022, published 2025).

This test concerns the target T1, human HAQ STING isoform (hSTING HAQ) (Homo sapiens, UniProt Q86WV6, G230A/H232R/R293Q/R71H).
T1 construct: THP1 cells express the naturally occurring human HAQ STING isoform (hSTING HAQ); host or cells: THP1
As to the kind of experiment: IFN-β mRNA level in THP1 cells (qPCR, STING agonist cellular activity). Format: cell-based. Particulars: compound at 3.6 μM, 2 hrs, IFNβ expression normalized against GAPDH by the 2^-ΔΔCT method, DMSO = 1.0. The protocol: Cellular activity of STING agonists was determined by mRNA levels of IFN-β in THP1 (Otwo Biotech HTX1621) cell line. THP1 cells express the naturally occurring human HAQ STING isoform (hSTING HAQ), which responses to the activation of STING agonists.
THP1 cells were seeded into Falcon 12-well cell Culture Plate (Corning #353043) at 9×10^5 cells per well, in 1 ml complete culture medium (RPMI-1640, GIBCO #C1187500BT) containing 10% heat inactivated FBS (GIBCO #10099141C), 1% Pen-Strep (HyClone SV30010) and incubated at 37° ΔC, 5% CO2 overnight. On day 2, compound (final concentration at 3.6 μM) or DMSO (0.1%, Sigma Aldrich #8418) was added to THP1 cells and further incubated for 2 hrs min at 37° ΔC, 5% CO2. Cells were then collected for RNA extraction.
Total RNA was extracted with TRIzol reagent (Invitrogen #15596026) and […] was used to synthesize first-strand cDNA with Maxima First Strand cDNA Synthesis Kit (TAKARA #RR036A). Quantitative PCR was performed with Maxima SYBR Green qPCR Master Mix (ABI #4367659, USA). The primer sequences used were as follows: GAPDH (5′-[…]-3′, 5′-[…]-3′). INFP3 (5′-[…]-3′,5′-[…]-3′) Real-time PCR was performed on QuantStudio™ 5 Real-Time PCR System (Thermo Fisher). Relative expression levels of IFNβ gene were normalized against the level of GAPDH expression by the 2^−ΔΔCT method. Each PCR reaction was performed in triplicates.
In general terms: Quantitative PCR measures a nucleic acid by following its amplification.

Each structure is given as a SMILES string.

T1 sequence (Q86WV6 whole entry R71H/G230A/H232R/R293Q, canonical isoform): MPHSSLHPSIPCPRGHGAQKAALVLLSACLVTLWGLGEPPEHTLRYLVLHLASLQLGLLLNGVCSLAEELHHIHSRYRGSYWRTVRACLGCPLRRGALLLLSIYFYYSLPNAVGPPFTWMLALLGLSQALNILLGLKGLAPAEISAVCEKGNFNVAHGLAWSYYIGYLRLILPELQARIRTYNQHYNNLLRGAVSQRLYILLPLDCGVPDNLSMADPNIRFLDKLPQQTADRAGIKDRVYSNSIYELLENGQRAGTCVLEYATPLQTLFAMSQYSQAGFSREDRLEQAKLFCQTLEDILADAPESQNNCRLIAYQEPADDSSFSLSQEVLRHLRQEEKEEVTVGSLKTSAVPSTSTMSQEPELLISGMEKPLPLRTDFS

In the case of `COc1cc(CN(Cc2cn3c4c(c(N5CCNCC5)c(F)cc4c2=O)OCC3C)[C@H]2CCCN(c3ccc(N)nc3)C2)ccn1` (stereo partly drawn) [Compound 39, 6-((((S)-1-(6-aminopyridin-3-yl)piperidin-3-yl)((2-methoxypyridin-4-yl)methyl)amino)methyl)-9-fluoro-3-methyl-10-(piperazin-1-yl)-2H-[1,4]oxazino[2,3,4-ij]quinolin-7(3H)-one], the “Relative mRNA INFβ/GAPDH THP 1” value was 81.3.
The same measure for `COc1cc(CN(Cc2cn3c4c(c(N5CCNC(C)C5)c(F)cc4c2=O)OCC3C)[C@H]2CCCN(c3ccc(N)nc3)C2)ccn1` (stereo partly drawn) [Compound 40, 6-((((S)-1-(6-aminopyridin-3-yl)piperidin-3-yl)((2-methoxypyridin-4-yl)methyl)amino)methyl)-9-fluoro-3-methyl-10-(3-methylpiperazin-1-yl)-2H-[1,4]oxazino[2,3,4-ij]quinolin-7(3H)-one]: 352.8; for `COc1cc(CN(Cc2cn3c4c(c(N5CCNCC5C)c(F)cc4c2=O)OCC3C)[C@H]2CCCN(c3ccc(N)nc3)C2)ccn1` (stereo partly drawn) [Compound 41, 6-((((S)-1-(6-aminopyridin-3-yl)piperidin-3-yl)((2-methoxypyridin-4-yl)methyl)amino)methyl)-9-fluoro-3-methyl-10-(2-methylpiperazin-1-yl)-2H-[1,4]oxazino[2,3,4-ij]quinolin-7(3H)-one]: 1.2.
The same measure for `CNC1CCCN(c2c(F)cc3c(=O)c(CN(Cc4ccnc(OC)c4)[C@H]4CCCN(c5ccc(N)nc5)C4)cn4c3c2OCC4C)C1.Cl` (stereo partly drawn) [Compound 42, 6-((((S)-1-(6-aminopyridin-3-yl)piperidin-3-yl)((2-methoxypyridin-4-yl)methyl)amino)methyl)-9-fluoro-3-methyl-10-(3-(methylamino)piperidin-1-yl)-2H-[1,4]oxazino[2,3,4-ij]quinolin-7(3H)-one Hydrochloride]: 12.1; for `COc1cc(CN(Cc2cn3c4c(c(N(C)C5CCCNC5)c(F)cc4c2=O)OCC3C)[C@H]2CCCN(c3ccc(N)nc3)C2)ccn1.Cl` (stereo partly drawn) [Compound 43, 6-((((S)-1-(6-aminopyridin-3-yl)piperidin-3-yl)((2-methoxypyridin-4-yl)methyl)amino)methyl)-9-fluoro-3-methyl-10-(methyl(piperidin-3-yl)amino)-2H-[1,4]oxazino[2,3,4-ij]quinolin-7(3H)-one Hydrochloride]: 1.2.
The same measure for `COc1cc(CN(Cc2cn3c4c(c(N5CCC6(CC5)CC(O)CO6)c(F)cc4c2=O)OCC3C)[C@H]2CCCN(c3ccc(N)nc3)C2)ccn1` (stereo partly drawn) [Compound 44, 6-((((S)-1-(6-aminopyridin-3-yl)piperidin-3-yl)((2-methoxypyridin-4-yl)methyl)amino)methyl)-9-fluoro-10-(3-hydroxy-1-oxa-8-azaspiro[4.5]decan-8-yl)-3-methyl-2H-[1,4]oxazino[2,3,4-ij]quinolin-7(3H)-one]: 642.4.
As to `COc1cc(CN(Cc2cn3c4c(c(N5CC6(CCN(C)CC6)C5)c(F)cc4c2=O)OCC3C)[C@H]2CCCN(c3ccc(N)nc3)C2)ccn1` (stereo partly drawn) [Compound 45, 6-((((S)-1-(6-aminopyridin-3-yl)piperidin-3-yl)((2-methoxypyridin-4-yl)methyl)amino)methyl)-9-fluoro-3-methyl-10-(7-methyl-2,7-diazaspiro[3.5]nonan-2-yl)-2H-[1,4]oxazino[2,3,4-ij]quinolin-7(3H)-one], the “Relative mRNA INFβ/GAPDH THP 1” value came out at 595.1.
For `COc1cc(CN(Cc2cn3c4c(c(N5CC6CC(F)(F)CC6C5)c(F)cc4c2=O)OCC3C)[C@H]2CCCN(c3ccc(N)nc3)C2)ccn1` (stereo partly drawn) [Compound 46, 6-((((S)-1-(6-aminopyridin-3-yl)piperidin-3-yl)((2-methoxypyridin-4-yl)methyl)amino)methyl)-10-(5,5-difluorohexahydrocyclopenta[c]pyrrol-2(1H)-yl)-9-fluoro-3-methyl-2H-[1,4]oxazino[2,3,4-ij]quinolin-7(3H)-one], the “Relative mRNA INFβ/GAPDH THP 1” value is on record as 691.4.
As to `COc1cc(CN(Cc2cn3c4c(c(F)c(F)cc4c2=O)OCCC3)[C@H]2CCCN(c3ccc(N)nc3)C2)ccn1` [Compound 47, (S)-7-(((1-(6-aminopyridin-3-yl)piperidin-3-yl)((2-methoxypyridin-4-yl)methyl)amino)methyl)-10,11-difluoro-3,4-dihydro-[1,4]oxazepino[2,3,4-ij]quinolin-8(2H)-one], the “Relative mRNA INFβ/GAPDH THP 1” value is 710.4.
The same measure for `COc1cc(CN(Cc2cn3c4c(c(F)c(F)cc4c2=O)OCC3(C)C)[C@H]2CCCN(c3ccc(N)nc3)C2)ccn1` [Compound 48, (S)-6-(((1-(6-aminopyridin-3-yl)piperidin-3-yl)((2-methoxypyridin-4-yl)methyl)amino)methyl)-9,10-difluoro-3,3-dimethyl-2H-[1,4]oxazino[2,3,4-ij]quinolin-7(3H)-one]: 1202.3; for `COc1cc(CN(Cc2cn3c4c(c(F)c(F)cc4c2=O)OC2(CCC2)C3)[C@H]2CCCN(c3ccc(N)nc3)C2)ccn1` [Compound 49, (S)-6-(((1-(6-aminopyridin-3-yl)piperidin-3-yl)((2-methoxypyridin-4-yl)methyl)amino)methyl)-9,10-difluorospiro[[1,4]oxazino[2,3,4-ij]quinoline-2,1′-cyclobutan]-7(3H)-one]: 5276.2; for `COc1cc(CN(Cc2cn3c4c(c(F)c(F)cc4c2=O)OC(C)(C)C3)[C@H]2CCCN(c3ccc(N)nc3)C2)ccn1` [Compound 50, (S)-6-(((1-(6-aminopyridin-3-yl)piperidin-3-yl)((2-methoxypyridin-4-yl)methyl)amino)methyl)-9,10-difluoro-2,2-dimethyl-2H-[1,4]oxazino[2,3,4-ij]quinolin-7(3H)-one]: 6723.5.
The same measure for `COc1cc(CN(Cc2cn3c4c(c(F)c(F)cc4c2=O)OC(C)C3)[C@H]2CCCN(c3ccc(N)nc3)C2)ccn1` (stereo partly drawn) [Compound 51, 6-((((S)-1-(6-aminopyridin-3-yl)piperidin-3-yl)((2-methoxypyridin-4-yl)methyl)amino)methyl)-9,10-difluoro-2-methyl-2H-[1,4]oxazino[2,3,4-ij]quinolin-7(3H)-one]: 7257.8; for `COc1cc(CN(Cc2cn3c4c(cc(F)c(F)c4c2=O)OCC3C)[C@H]2CCCN(c3ccc(N)nc3)C2)ccn1` (stereo partly drawn) [Compound 52, 6-((((S)-1-(6-aminopyridin-3-yl)piperidin-3-yl)((2-methoxypyridin-4-yl)methyl)amino)methyl)-8,9-difluoro-3-methyl-2H-[1,4]oxazino[2,3,4-ij]quinolin-7(3H)-one]: 178.2; for `COc1cc(CN(Cc2cn3c4c(c(F)c(F)cc4c2=O)OCC3C)[C@H]2CCCN(c3cnc4[nH]ncc4c3)C2)ccn1` (stereo partly drawn) [Compound 54, 6-((((S)-1-(1H-pyrazolo[3,4-b]pyridin-5-yl)piperidin-3-yl)((2-methoxypyridin-4-yl)methyl)amino)methyl)-9,10-difluoro-3-methyl-2H-[1,4]oxazino[2,3,4-ij]quinolin-7(3H)-one]: 3.9.
The same measure for `COc1cc(CN(Cc2cn3c4c(c(Br)c(F)cc4c2=O)OCC3C)[C@H]2CCCN(c3ccc(N)nc3)C2)ccn1` (stereo partly drawn) [Compound 55, 6-((((S)-1-(6-aminopyridin-3-yl)piperidin-3-yl)((2-methoxypyridin-4-yl)methyl)amino)methyl)-10-bromo-9-fluoro-3-methyl-2H-[1,4]oxazino[2,3,4-ij]quinolin-7(3H)-one]: 655.0; for `COc1cc(CN(Cc2cn3c4c(c(-c5ccncc5)c(F)cc4c2=O)OCC3C)[C@H]2CCCN(c3ccc(N)nc3)C2)ccn1` (stereo partly drawn) [Compound 56, 6-((((S)-1-(6-aminopyridin-3-yl)piperidin-3-yl)((2-methoxypyridin-4-yl)methyl)amino)methyl)-9-fluoro-3-methyl-10-(pyridin-4-yl)-2H-[1,4]oxazino[2,3,4-ij]quinolin-7(3H)-one]: 366.2; for `COc1cc(CN(Cc2cn3c4c(c(C)c(F)cc4c2=O)OCC3C)[C@H]2CCCN(c3ccc(N)nc3)C2)ccn1` (stereo partly drawn) [Compound 57, 6-((((S)-1-(6-aminopyridin-3-yl)piperidin-3-yl)((2-methoxypyridin-4-yl)methyl)amino)methyl)-9-fluoro-3,10-dimethyl-2H-[1,4]oxazino[2,3,4-ij]quinolin-7(3H)-one]: 580.9.
Regarding `COc1cc(CN(Cc2cn3c4c(c(C5=CCSCC5)c(F)cc4c2=O)OCC3C)[C@H]2CCCN(c3ccc(N)nc3)C2)ccn1` (stereo partly drawn) [Compound 58, 6-((((S)-1-(6-aminopyridin-3-yl)piperidin-3-yl)((2-methoxypyridin-4-yl)methyl)amino)methyl)-10-(3,6-dihydro-2H-thiopyran-4-yl)-9-fluoro-3-methyl-2H-[1,4]oxazino[2,3,4-ij]quinolin-7(3H)-one], the “Relative mRNA INFβ/GAPDH THP 1” value is 688.4.
